Assay results: ChEMBL document CHEMBL2440099, “N-Alkyl dien- and trienamides from the roots of Otanthus maritimus with binding affinity for opioid and cannabinoid receptors” (Bioorg Med Chem, 2013)

Experiments:
Mus musculus [1] = organism: Mus musculus; test: Selectivity ratio of Ki for delta opioid receptor in CD1 mouse brain membranes to Ki for mu opioid receptor in CD1 mouse brain membranes; assay type: cell membranes
Cannabinoid receptor 1 = Cannabinoid receptor 1 (Mus musculus, UniProt P47746); test: Displacement of [3H]-CP-55940 from cannabinoid CB1 receptor in CD1 mouse brain membranes after 1 hr by liquid scintillation counting; assay type: cell membranes, Membrane
[2] = target: Delta-type opioid receptor (Mus musculus, UniProt P32300); test: Displacement of [3H]DPDPE from delta opioid receptor in CD1 mouse brain membranes after 1 hr by liquid scintillation counting; assay type: cell membranes, Membrane
Mu-type opioid receptor = Mu-type opioid receptor (Mus musculus, UniProt P42866); test: Displacement of [3H]DAMGO from mu opioid receptor in CD1 mouse brain membranes after 1 hr by liquid scintillation counting; assay type: cell membranes, Membrane
Mus musculus [3] = organism: Mus musculus; test: Selectivity ratio of Ki for cannabinoid CB1 receptor in CD1 mouse brain membranes to Ki for cannabinoid CB2 receptor in CD1 mouse spleen membranes; assay type: cell membranes
Cannabinoid receptor 2 = Cannabinoid receptor 2 (Mus musculus, UniProt P47936); test: Displacement of [3H]-CP-55940 from cannabinoid CB2 receptor in CD1 mouse spleen membranes after 1 hr by liquid scintillation counting; assay type: cell membranes, Membrane

| SMILES | Ratio Ki (Mus musculus [1]) | Ki (Cannabinoid receptor 1) [µM] | Ki [2] [µM] | Ki (Mu-type opioid receptor) [µM] | Ratio Ki (Mus musculus [3]) | Ki (Cannabinoid receptor 2) [µM] |
| --- | --- | --- | --- | --- | --- | --- |
| CC(C)CCNC(=O)/C=C/C=C/C=C/c1cccs1 | 3.27 | 2.2 | 26.5 | 8.1 | 0.44 | 5 |
| COc1cc([C@@H]2Oc3c(OC)cc(/C=C/C=O)cc3[C@H]2COC(=O)CC(C)C)ccc1O | 0.42 | 2.7 | 3.8 | 9 | 0.64 | 4.2 |
| O=C(/C=C/C=C/C=C/c1cccs1)N1CCCCC1 | 0.63 | 4.1 | 8 | 12.8 | 3.3 | 1.24 |
| C=CC1OC1/C=C/C#CC#CC#CC (centres undefined) |  | > 50 | > 50 | > 50 |  | > 50 |
| CCCCCCCCC/C=C/C=C/C(=O)NCC(C)C | 0.44 | 1.4 | 22.5 | 51 | 1.2 | 1.17 |
| CCCCCCCCC/C=C/C=C/C(=O)N1CCCCC1 | 1.13 | 6.7 | 6.5 | 5.75 | 0.28 | 24 |
| CCCCC/C=C\CC/C=C/C=C/C(=O)NCC(C)C | 1.03 | 1.2 | 7.7 | 7.5 | 2.18 | 0.55 |
| CCCCC/C=C\CC/C=C/C=C/C(=O)N1CCCCC1 | 0.51 | 0.8 | 3.8 | 7.4 | 5 | 0.16 |
| O=C(/C=C/C=C/C=C/c1cccs1)N1C=CCCC1 | 0.4 | > 50 | 11.5 | 29 |  | 13.5 |
| CC(C)CC(=O)OC/C=C\CCNC(=O)/C=C/C=C/C=C/c1cccs1 | 0.27 | 5.6 | 11 | 41.5 | 0.55 | 10.2 |
| CC(C)CNC(=O)/C=C/C=C/C=C/c1cccs1 | 0.49 | 8.8 | 25.5 | 52 | 1.07 | 8.25 |
| CCCCCCC/C=C/C=C/C(=O)NCC(C)C | 5.24 | 2.6 | 43 | 8.2 | 2.89 | 0.9 |
